According to ChEMBL document CHEMBL1201862, “PubChem BioAssay data set” (2004):
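Assay format: 96-well plates, 48-hour exposure. GI50 is the concentration that inhibits growth by half.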 The source made the active and inactive calls. No stated cut-off is given here; in the data, active = GI50 up to about 1.1 µM and inactive = higher.

Key:
Assay in all cases: NCI anticancer screen, dose series, 48 h
MDA-MB-435 = tested on: MDA-MB-435
DU-145 = tested on: DU-145
SN12C = tested on: SN12C
SR = tested on: SR
T47D = tested on: T47D
MOLT-4 = tested on: MOLT-4
NCI-H226 = tested on: NCI-H226
HL-60 = tested on: HL-60
RPMI-8226 = tested on: RPMI-8226
OVCAR-5 = tested on: OVCAR-5
PC-3 = tested on: PC-3
U-251 = tested on: U-251
NCI-H460 = tested on: NCI-H460
SK-MEL-28 = tested on: SK-MEL-28
OVCAR-4 = tested on: OVCAR-4
HCT-15 = tested on: HCT-15
K562 = tested on: K562
LOX IMVI = tested on: LOX IMVI
SF-539 = tested on: SF-539
NCI-H522 = tested on: NCI-H522

| SMILES | GI50 (MDA-MB-435) | GI50 (DU-145) | GI50 (SN12C) | GI50 (SR) | GI50 (T47D) | GI50 (MOLT-4) | GI50 (NCI-H226) | GI50 (HL-60) | GI50 (RPMI-8226) | GI50 (OVCAR-5) | GI50 (PC-3) | GI50 (U-251) | GI50 (NCI-H460) | GI50 (SK-MEL-28) | GI50 (OVCAR-4) | GI50 (HCT-15) [µM] | GI50 (K562) | GI50 (LOX IMVI) | GI50 (SF-539) | GI50 (NCI-H522) |
| --- | --- | --- | --- | --- | --- | --- | --- | --- | --- | --- | --- | --- | --- | --- | --- | --- | --- | --- | --- | --- |
| O=C(C#Cc1ccccc1)C1=Cc2ccccc2OC1 | 3.86 µM (inactive) | 5.53 µM (inactive) | 3.85 µM (inactive) | 7.23 µM (inactive) | 3.26 µM (inactive) | 3.33 µM (inactive) | 2.55 µM (inactive) | 2.19 µM (inactive) | 2.71 µM (inactive) | 2.99 µM (inactive) | 4.34 µM (inactive) | 3.6 µM (inactive) | 4.83 µM (inactive) | 7.53 µM (inactive) | 3.34 µM (inactive) | 2.37 | 2.61 µM (inactive) | 0.783 µM (active) | 1.93 µM (inactive) | 1.37 µM (inactive) |
| Clc1ncc(Cl)c(Cl)n1 | 2.65 µM (inactive) | 11.8 µM (inactive) | 1.73 µM (inactive) | 1.61 µM (inactive) | 2.36 µM (inactive) | 1.5 µM (inactive) | 4.85 µM (inactive) | 0.474 µM (active) | 0.455 µM (active) | 19.8 µM (inactive) | 2.45 µM (inactive) | 4.22 µM (inactive) | 5.27 µM (inactive) | 3.42 µM (inactive) | 2.08 µM (inactive) | 2.24 | 0.832 µM (active) | 1.17 µM (inactive) | 8.97 µM (inactive) | 1.48 µM (inactive) |
| CC(=O)C1=C(C)NC(=C(C#N)C#N)C(C#N)=C1 | > 100 µM (inactive) | > 100 µM (inactive) | > 100 µM (inactive) | > 100 µM (inactive) | > 100 µM (inactive) | > 100 µM (inactive) | > 100 µM (inactive) | > 100 µM (inactive) | > 100 µM (inactive) | > 100 µM (inactive) | > 100 µM (inactive) | > 100 µM (inactive) | > 100 µM (inactive) | > 100 µM (inactive) | 3.81 µM (inactive) | > 100 | > 100 µM (inactive) | > 100 µM (inactive) | > 100 µM (inactive) | > 100 µM (inactive) |
| CC1CCC2(NC1)OC1CC3C4CC=C5CC(OC6OC(CO)C(OC7OC(C)C(O)C(O)C7O)C(O)C6OC6OC(C)C(O)C(O)C6O)CCC5(C)C4CCC3(C)C1C2C (stereo not given) | 2.04 µM (inactive) | 4 µM (inactive) | 2.24 µM (inactive) | 3.08 µM (inactive) | 7.64 µM (inactive) | 8.55 µM (inactive) | 2.46 µM (inactive) | 4.41 µM (inactive) | 12.8 µM (inactive) | 5.66 µM (inactive) | 2.09 µM (inactive) | 2.84 µM (inactive) | 3.55 µM (inactive) | 1.91 µM (inactive) | 2.54 µM (inactive) | 6.67 | 4.11 µM (inactive) | 5.79 µM (inactive) | 3.3 µM (inactive) | 1.7 µM (inactive) |
| O=C(O)C(O)C(O)C(O)C(=O)CO (stereo not given) | > 100 µM (inactive) | > 100 µM (inactive) | > 100 µM (inactive) | > 100 µM (inactive) | > 100 µM (inactive) | > 100 µM (inactive) | > 100 µM (inactive) | > 100 µM (inactive) | > 100 µM (inactive) | > 100 µM (inactive) | > 100 µM (inactive) | > 100 µM (inactive) | > 100 µM (inactive) | > 100 µM (inactive) | > 100 µM (inactive) | > 100 | > 100 µM (inactive) | > 100 µM (inactive) | > 100 µM (inactive) | > 100 µM (inactive) |
